# Test results from ChEMBL document CHEMBL3124810, “Synthesis and biological evaluation of novel benzamide derivatives as potent smoothened antagonists” (Bioorg Med Chem Lett, 2014).
# Calls of active or inactive are those of the source. No cut-off for these calls is given here.
# Key:
# Protein smoothened [1] = biological target: T1, Protein smoothened (Homo sapiens, UniProt Q99835); assay: Antagonist activity at smoothened (unknown origin) expressed in mouse Shh Light2 cells co-expressing Gli-dependent reporter gene assessed as inhibition of Shh signaling at 2 uM by dual luciferase reporter gene assay; format: functional, cell-based; details: Shh Light II
# Danio rerio = species on record: Danio rerio; assay: Antagonist activity at smoothened in zebrafish embryo assessed as reduction in Gli-dependent RFP expression compound treated at 20 to 80 uM at 2 hrs post fertilization measured 36 hrs post fertilization
# SW1353 = assay: Antiproliferative activity against human SW1353 cells assessed as growth inhibition at 10 uM after 48 hrs by MTT assay; format: functional, cell-based
# A549 = assay: Antiproliferative activity against human A549 cells assessed as growth inhibition at 10 uM after 48 hrs by MTT assay; format: functional, cell-based
# Daoy = assay: Antiproliferative activity against human DaOY cells assessed as growth inhibition at 10 uM after 48 hrs by MTT assay; format: functional, cell-based
# HCT-116 = assay: Antiproliferative activity against human HCT116 cells assessed as growth inhibition at 10 uM after 48 hrs by MTT assay; format: functional, cell-based
# [2] = Inhibition of Hedgehog signaling in mouse NIH/3T3 cells assessed as down regulation of mPTCH1 mRNA expression at 10 uM; format: cell-based; details: NIH3T3
# [3] = Inhibition of hedgehog signaling in mouse MSC cells assessed as down regulation of alkaline phosphatase at 20 to 80 uM; format: cell-based
# Protein smoothened [4] = biological target: T1, Protein smoothened; assay: Antagonist activity at smoothened (unknown origin) expressed in mouse Shh Light2 cells co-expressing Gli-dependent reporter gene assessed as inhibition of Hh signaling by dual luciferase reporter gene assay; format: functional, cell-based, Shh Light II
# Protein smoothened [5] = biological target: T1, Protein smoothened; assay: Antagonist activity at smoothened (unknown origin) expressed in mouse Shh Light2 cells co-expressing Gli-dependent reporter gene assessed as inhibition of Shh signaling at 0.5 uM by dual luciferase reporter gene assay; format: functional, cell-based; details: Shh Light II
# Protein smoothened [6] = biological target: T1, Protein smoothened; assay: Displacement of BODIPY-cyclopamine from human SMO cyclopamine-binding site expressed in HEK293 cells at 10 to 100 nM after 4 hrs by Hoechst 33342 staining-based assay; format: cell-based
# Protein smoothened [7] = biological target: T1, Protein smoothened; assay: Displacement of BODIPY-cyclopamine from human SMO cyclopamine-binding site expressed in HEK293 cells at 50 to 200 nM after 4 hrs by Hoechst 33342 staining-based assay; format: cell-based
# T1 sequence (Q99835 whole entry): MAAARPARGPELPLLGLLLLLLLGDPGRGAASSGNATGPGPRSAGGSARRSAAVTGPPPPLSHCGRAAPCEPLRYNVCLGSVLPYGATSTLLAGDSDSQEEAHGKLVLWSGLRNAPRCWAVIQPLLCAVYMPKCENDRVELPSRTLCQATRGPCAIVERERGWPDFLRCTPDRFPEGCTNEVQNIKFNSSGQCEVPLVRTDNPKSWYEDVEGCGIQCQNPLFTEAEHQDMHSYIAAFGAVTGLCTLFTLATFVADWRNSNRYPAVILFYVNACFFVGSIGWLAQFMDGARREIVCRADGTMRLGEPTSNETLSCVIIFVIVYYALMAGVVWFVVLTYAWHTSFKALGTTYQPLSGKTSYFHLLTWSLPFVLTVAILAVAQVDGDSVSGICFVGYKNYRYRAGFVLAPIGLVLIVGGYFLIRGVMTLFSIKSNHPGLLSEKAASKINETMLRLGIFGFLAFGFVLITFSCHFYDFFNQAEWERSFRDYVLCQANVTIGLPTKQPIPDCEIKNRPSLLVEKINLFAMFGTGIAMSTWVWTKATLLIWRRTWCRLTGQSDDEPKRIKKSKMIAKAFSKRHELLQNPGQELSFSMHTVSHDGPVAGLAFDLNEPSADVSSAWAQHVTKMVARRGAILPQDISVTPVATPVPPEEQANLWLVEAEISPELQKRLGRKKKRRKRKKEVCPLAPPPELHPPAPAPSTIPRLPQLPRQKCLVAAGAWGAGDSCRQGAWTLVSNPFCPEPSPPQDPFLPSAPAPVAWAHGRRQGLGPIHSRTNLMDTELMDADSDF
smiles,measurement,setting,value
CS(=O)(=O)c1ccc(C(=O)Nc2ccc(Cl)c(NC(=O)c3cccc(C(F)(F)F)c3)c2)c(Cl)c1,inhibition,Protein smoothened [1],28.4%
CS(=O)(=O)c1ccc(C(=O)Nc2ccc(Cl)c(-c3ccccn3)c2)c(Cl)c1,inhibition,Danio rerio,Active
same,growth inhibition (GI),SW1353,Active
same,growth inhibition (GI),A549,Active
same,growth inhibition (GI),Daoy,Active
same,growth inhibition (GI),HCT-116,Active
same,inhibition,[2],Active
same,inhibition,[3],Active
CS(=O)(=O)c1ccc(C(=O)Nc2ccc(Cl)c(C(=O)Nc3cccnc3)c2)c(Cl)c1,inhibition,Protein smoothened [1],72.9%
CS(=O)(=O)c1ccc(C(=O)Nc2ccc(Cl)c(NC(=O)Nc3ccc(C(F)(F)F)cc3Cl)c2)c(Cl)c1,IC50,Protein smoothened [4],300 nM
CS(=O)(=O)c1ccc(C(=O)Nc2ccc(Cl)c(C(=O)Nc3ccc(Cl)cc3Cl)c2)c(Cl)c1,inhibition,Protein smoothened [1],0%
Cc1cc(C)cc(NC(=O)c2cc(NC(=O)c3ccc(S(C)(=O)=O)cc3Cl)ccc2Cl)c1,inhibition,Protein smoothened [1],56.8%
COc1cc(OC)cc(C(=O)Nc2cc(NC(=O)c3ccc(S(C)(=O)=O)cc3Cl)ccc2Cl)c1,inhibition,Protein smoothened [1],3.6%
CCc1ccccc1NC(=O)c1cc(NC(=O)c2ccc(S(C)(=O)=O)cc2Cl)ccc1Cl,inhibition,Protein smoothened [1],65.9%
CS(=O)(=O)c1ccc(C(=O)Nc2ccc(Cl)c(NC(=O)c3ccc(Cl)cn3)c2)c(Cl)c1,inhibition,Protein smoothened [1],30.5%
Cc1ccc(NC(=O)c2cc(NC(=O)c3ccc(S(C)(=O)=O)cc3Cl)ccc2Cl)cc1,inhibition,Protein smoothened [1],67.5%
Cc1ccccc1NC(=O)c1cc(NC(=O)c2ccc(S(C)(=O)=O)cc2Cl)ccc1Cl,inhibition,Protein smoothened [1],73%
COc1ccc(NC(=O)Nc2cc(NC(=O)c3ccc(S(C)(=O)=O)cc3Cl)ccc2Cl)cc1,inhibition,Protein smoothened [5],inactive
same,inhibition,Protein smoothened [1],73.8%
CS(=O)(=O)c1ccc(C(=O)Nc2ccc(Cl)c(NC(=O)c3ccc(Cl)s3)c2)c(Cl)c1,inhibition,Protein smoothened [1],51.4%
CCOc1ccc(NC(=O)c2cc(NC(=O)c3ccc(S(C)(=O)=O)cc3Cl)ccc2Cl)cc1,inhibition,Protein smoothened [1],70.4%
CS(=O)(=O)c1ccc(C(=O)Nc2ccc(Cl)c(NC(=O)Nc3ccc(Br)cc3F)c2)c(Cl)c1,inhibition,Protein smoothened [5],inactive
same,inhibition,Protein smoothened [1],55.4%
CS(=O)(=O)c1ccc(C(=O)Nc2ccc(Cl)c(C(=O)Nc3cccc(O)c3)c2)c(Cl)c1,inhibition,Danio rerio,Active
same,growth inhibition (GI),SW1353,Active
same,growth inhibition (GI),A549,Active
same,growth inhibition (GI),Daoy,Active
same,growth inhibition (GI),HCT-116,Active
same,inhibition,[2],Active
same,inhibition,[3],Active
same,Activity,Protein smoothened [6],Active
same,inhibition,Protein smoothened [1],72.2%
same,IC50,Protein smoothened [4],40 nM
CS(=O)(=O)c1ccc(C(=O)Nc2ccc(Cl)c(NC(=O)Nc3ccc(Cl)cc3)c2)c(Cl)c1,inhibition,Protein smoothened [5],inactive
same,inhibition,Protein smoothened [1],0%
COc1ccc(NC(=O)c2cc(NC(=O)c3ccc(S(C)(=O)=O)cc3Cl)ccc2Cl)cc1,inhibition,Protein smoothened [1],69.8%
CCOc1ccc(NC(=O)Nc2cc(NC(=O)c3ccc(S(C)(=O)=O)cc3Cl)ccc2Cl)cc1,inhibition,Protein smoothened [5],inactive
same,inhibition,Protein smoothened [1],66.1%
Cc1cccc(NC(=O)c2cc(NC(=O)c3ccc(S(C)(=O)=O)cc3Cl)ccc2Cl)c1C,Activity,Protein smoothened [7],Active
same,inhibition,Protein smoothened [1],76.3%
same,IC50,Protein smoothened [4],100 nM
CS(=O)(=O)c1ccc(C(=O)Nc2ccc(Cl)c(NC(=O)c3ccccn3)c2)c(Cl)c1,inhibition,Protein smoothened [1],53.2%
CS(=O)(=O)c1ccc(C(=O)Nc2ccc(Cl)c(C(=O)Nc3cc(Cl)cc(Cl)c3)c2)c(Cl)c1,inhibition,Protein smoothened [1],46.6%
